From PubChem BioAssay (NCI)
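Interpolation was linear, between the two tested concentrations surrounding the appropriate level; five concentrations were tested over 48 hours in 96-well plates. At the TGI there is no net growth.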

Experiments:
Experiment in all cases: NCI-60 cell line screen, 48 h
CAKI-1 renal = tested on: CAKI-1 renal
COLO 205 colon = tested on: COLO 205 colon
HCC-2998 colon = tested on: HCC-2998 colon
HCT-15 colon = tested on: HCT-15 colon
HOP-62 NSCLC = tested on: HOP-62 NSCLC
LOX IMVI melanoma = tested on: LOX IMVI melanoma
MDA-N = tested on: MDA-N
OVCAR-5 ovarian = tested on: OVCAR-5 ovarian
RPMI-8226 leukemia = tested on: RPMI-8226 leukemia
RXF 393 renal = tested on: RXF 393 renal
SF-268 CNS = tested on: SF-268 CNS
SK-MEL-2 melanoma = tested on: SK-MEL-2 melanoma
SNB-19 CNS = tested on: SNB-19 CNS
U251 CNS = tested on: U251 CNS
UACC-257 melanoma = tested on: UACC-257 melanoma
UACC-62 melanoma = tested on: UACC-62 melanoma
IGROV1 ovarian = tested on: IGROV1 ovarian
NCI-H460 lung = tested on: NCI-H460 lung

O=S1(=O)OCCOS(=O)(=O)C1(F)Br
TGI (CAKI-1 renal): > 100 µM
TGI (COLO 205 colon): > 100 µM
TGI (HCC-2998 colon): > 100 µM
TGI (HCT-15 colon): > 100 µM
TGI (HOP-62 NSCLC): > 100 µM
TGI (LOX IMVI melanoma): > 100 µM
TGI (MDA-N): > 100 µM
TGI (OVCAR-5 ovarian): > 100 µM
TGI (RPMI-8226 leukemia): > 100 µM
TGI (RXF 393 renal): > 100 µM
TGI (SF-268 CNS): > 100 µM
TGI (SK-MEL-2 melanoma): > 100 µM
TGI (SNB-19 CNS): > 100 µM
TGI (U251 CNS): > 100 µM
TGI (UACC-257 melanoma): > 100 µM
TGI (UACC-62 melanoma): > 100 µM

C/C(=N\Nc1ccc([N+](=O)[O-])cc1[N+](=O)[O-])c1sc(-n2nc(-c3ccccc3)cc2-c2ccccc2)nc1C
TGI (CAKI-1 renal): > 100 µM
TGI (COLO 205 colon): 67.4 µM
TGI (HCC-2998 colon): > 100 µM
TGI (HCT-15 colon): > 100 µM
TGI (HOP-62 NSCLC): > 100 µM
TGI (IGROV1 ovarian): > 100 µM
TGI (LOX IMVI melanoma): 63.9 µM
TGI (MDA-N): > 100 µM
TGI (NCI-H460 lung): > 100 µM
TGI (OVCAR-5 ovarian): > 100 µM
TGI (RPMI-8226 leukemia): 41.4 µM
TGI (SF-268 CNS): > 100 µM
TGI (SNB-19 CNS): > 100 µM
TGI (U251 CNS): > 100 µM
TGI (UACC-257 melanoma): 84.7 µM
TGI (UACC-62 melanoma): > 100 µM

CCOC(=O)C1C(c2ccc3c(c2)OCO3)c2c([nH][nH]c2=O)CC1(C)O (stereo not given)
TGI (CAKI-1 renal): > 100 µM
TGI (COLO 205 colon): > 100 µM
TGI (HCC-2998 colon): > 100 µM
TGI (HCT-15 colon): > 100 µM
TGI (HOP-62 NSCLC): > 100 µM
TGI (IGROV1 ovarian): > 100 µM
TGI (LOX IMVI melanoma): > 100 µM
TGI (MDA-N): > 100 µM
TGI (NCI-H460 lung): > 100 µM
TGI (OVCAR-5 ovarian): > 100 µM
TGI (RPMI-8226 leukemia): > 100 µM
TGI (SF-268 CNS): > 100 µM
TGI (SK-MEL-2 melanoma): > 100 µM
TGI (SNB-19 CNS): > 100 µM
TGI (U251 CNS): > 100 µM
TGI (UACC-257 melanoma): > 100 µM
TGI (UACC-62 melanoma): > 100 µM

COc1ccc(C2SCC(=O)N2c2ccc(-c3ccc(-n4c(-c5ccccc5)nc5ccccc5c4=O)cc3)cc2)cc1OC (stereo not given)
TGI (CAKI-1 renal): > 100 µM
TGI (COLO 205 colon): > 100 µM
TGI (HCT-15 colon): > 100 µM
TGI (HOP-62 NSCLC): 37.6 µM
TGI (IGROV1 ovarian): > 100 µM
TGI (LOX IMVI melanoma): 51.5 µM
TGI (MDA-N): > 100 µM
TGI (NCI-H460 lung): > 100 µM
TGI (RPMI-8226 leukemia): > 100 µM
TGI (RXF 393 renal): > 100 µM
TGI (SF-268 CNS): > 100 µM
TGI (SNB-19 CNS): > 100 µM
TGI (U251 CNS): > 100 µM
TGI (UACC-257 melanoma): > 100 µM
TGI (UACC-62 melanoma): > 100 µM

CC(=O)c1ccc2c(c1)CC1(C2)Cc2cc3c(cc2C1=O)CCC3 (stereo not given)
TGI (CAKI-1 renal): 47 µM
TGI (COLO 205 colon): 31.2 µM
TGI (HCC-2998 colon): 68.4 µM
TGI (HCT-15 colon): 95.9 µM
TGI (HOP-62 NSCLC): 81.3 µM
TGI (IGROV1 ovarian): 59 µM
TGI (LOX IMVI melanoma): 40.6 µM
TGI (MDA-N): 32.9 µM
TGI (NCI-H460 lung): 76.3 µM
TGI (OVCAR-5 ovarian): 83 µM
TGI (RPMI-8226 leukemia): 35.2 µM
TGI (RXF 393 renal): 90.4 µM
TGI (SF-268 CNS): 88 µM
TGI (SK-MEL-2 melanoma): 46.2 µM
TGI (SNB-19 CNS): > 100 µM
TGI (U251 CNS): > 100 µM
TGI (UACC-257 melanoma): 30.2 µM

Nc1n[n+](CC(=O)c2ccccc2)c2sc(-c3ccccc3)nn12
TGI (CAKI-1 renal): > 100 µM
TGI (COLO 205 colon): > 100 µM
TGI (HCT-15 colon): > 100 µM
TGI (HOP-62 NSCLC): > 100 µM
TGI (IGROV1 ovarian): > 100 µM
TGI (LOX IMVI melanoma): > 100 µM
TGI (MDA-N): > 100 µM
TGI (NCI-H460 lung): > 100 µM
TGI (OVCAR-5 ovarian): > 100 µM
TGI (RPMI-8226 leukemia): > 100 µM
TGI (RXF 393 renal): > 100 µM
TGI (SF-268 CNS): > 100 µM
TGI (SK-MEL-2 melanoma): > 100 µM
TGI (SNB-19 CNS): > 100 µM
TGI (U251 CNS): > 100 µM
TGI (UACC-257 melanoma): > 100 µM
TGI (UACC-62 melanoma): 82.7 µM

CC(C)(C)OC(=O)N/N=C(/N)Cc1ccc(Cl)cc1
TGI (CAKI-1 renal): > 100 µM
TGI (COLO 205 colon): > 100 µM
TGI (HCC-2998 colon): > 100 µM
TGI (HCT-15 colon): > 100 µM
TGI (HOP-62 NSCLC): > 100 µM
TGI (IGROV1 ovarian): > 100 µM
TGI (LOX IMVI melanoma): > 100 µM
TGI (MDA-N): > 100 µM
TGI (NCI-H460 lung): > 100 µM
TGI (OVCAR-5 ovarian): > 100 µM
TGI (RXF 393 renal): > 100 µM
TGI (SF-268 CNS): > 100 µM
TGI (SK-MEL-2 melanoma): > 100 µM
TGI (SNB-19 CNS): > 100 µM
TGI (U251 CNS): > 100 µM
TGI (UACC-257 melanoma): > 100 µM
TGI (UACC-62 melanoma): > 100 µM
